In this assay the target is T1, recombinant guanylate cyclase reporter cell line (Rattus norvegicus, UniProt P19686+P20595).
T1 construct: expressed in transfected cells
T1 sequence (P20595 1-619): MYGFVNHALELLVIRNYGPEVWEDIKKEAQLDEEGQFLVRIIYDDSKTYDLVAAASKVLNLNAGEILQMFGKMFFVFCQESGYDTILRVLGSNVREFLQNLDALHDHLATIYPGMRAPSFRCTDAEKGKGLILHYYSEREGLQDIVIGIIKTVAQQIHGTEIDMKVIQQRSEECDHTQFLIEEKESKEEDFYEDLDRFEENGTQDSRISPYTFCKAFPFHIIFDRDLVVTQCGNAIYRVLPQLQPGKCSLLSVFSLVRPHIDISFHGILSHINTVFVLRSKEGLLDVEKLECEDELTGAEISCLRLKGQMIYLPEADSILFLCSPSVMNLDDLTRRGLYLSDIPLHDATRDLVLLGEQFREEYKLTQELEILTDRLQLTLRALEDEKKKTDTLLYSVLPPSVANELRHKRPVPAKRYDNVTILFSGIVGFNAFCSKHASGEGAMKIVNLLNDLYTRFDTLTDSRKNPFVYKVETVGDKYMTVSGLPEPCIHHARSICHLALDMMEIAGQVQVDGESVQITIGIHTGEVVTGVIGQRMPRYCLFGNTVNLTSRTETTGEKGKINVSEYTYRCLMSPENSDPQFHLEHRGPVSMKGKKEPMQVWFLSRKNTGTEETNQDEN
T1 sequence (P19686 1-690): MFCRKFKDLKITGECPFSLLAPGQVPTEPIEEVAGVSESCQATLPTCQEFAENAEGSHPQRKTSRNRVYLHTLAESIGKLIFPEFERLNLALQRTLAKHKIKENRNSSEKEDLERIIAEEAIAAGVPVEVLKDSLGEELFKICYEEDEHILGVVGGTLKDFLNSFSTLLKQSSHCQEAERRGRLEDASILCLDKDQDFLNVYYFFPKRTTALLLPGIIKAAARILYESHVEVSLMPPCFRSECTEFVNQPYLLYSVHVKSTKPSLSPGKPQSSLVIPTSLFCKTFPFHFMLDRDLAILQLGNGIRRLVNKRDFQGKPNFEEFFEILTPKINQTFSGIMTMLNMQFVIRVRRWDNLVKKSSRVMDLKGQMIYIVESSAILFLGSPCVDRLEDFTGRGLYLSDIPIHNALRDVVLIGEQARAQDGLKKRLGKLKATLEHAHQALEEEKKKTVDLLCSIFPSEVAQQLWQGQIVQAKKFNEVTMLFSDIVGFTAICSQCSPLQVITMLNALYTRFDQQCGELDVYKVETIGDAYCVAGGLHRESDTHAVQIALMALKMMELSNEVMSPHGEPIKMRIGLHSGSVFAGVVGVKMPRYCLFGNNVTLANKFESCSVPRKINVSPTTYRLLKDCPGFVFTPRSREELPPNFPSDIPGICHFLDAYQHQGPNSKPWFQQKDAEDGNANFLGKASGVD
The experiment in a line: Effect on a recombinant guanylate cyclase reporter cell line (B-2). It counts as cell-based. As to conditions: MEC = minimum effective concentration; in some cases mean values from individual determinations. On the procedure: B-2. Effect on a Recombinant Guanylate Cyclase Reporter Cell Line
The cellular activity of the compounds according to the invention is determined using a recombinant guanylate cyclase reporter cell line, as described in F. Wunder et al., Anal. Biochem. 339, 104-112 (2005).
Representative MEC values (MEC=minimum effective concentration) for the compounds of the invention are shown in the table below (in some cases as mean values from individual determinations): […]
`Cc1cc(OCc2c(F)cccc2F)c2nc(C)c(C(=O)NC(C)C#N)n2c1` (racemic) [Example 1, rac-N-(1-Cyanoethyl)-8-[(2,6-difluorobenzyl)oxy]-2,6-dimethylimidazo[1,2-a]pyridine-3-carboxamide]: the MEC stood at 0.55 µM.

Consider `CCc1nc2c(OCc3c(F)cccc3F)cc(C)cn2c1C(=O)NC(C#N)c1ccc(Cl)cc1` (racemic) [Example 27, rac-N-[(4-chlorophenyl)(cyano)methyl]-8-[(2,6-difluorobenzyl)oxy]-2-ethyl-6-methylimidazo[1,2-a]pyridine-3-carboxamide], for which the MEC was determined as 0.3 µM.

As to `Cc1cc(OCCC(C)C)c2nc(C)c(C(=O)NC(C#N)c3ccc(Cl)cc3)n2c1` (racemic) [Example 25, rac-N-[(4-chlorophenyl)(cyano)methyl]-2,6-dimethyl-8-(3-methylbutoxy)imidazo[1,2-a]pyridine-3-carboxamide], the MEC came to 3 µM.

For the molecule `Cc1cc(OCc2c(F)cccc2F)c2nc(C)c(C(=O)NCCCCCC#N)n2c1` [Example 10, N-(5-cyanopentyl)-8-[(2,6-difluorobenzyl)oxy]-2,6-dimethylimidazo[1,2-a]pyridine-3-carboxamide], the MEC was determined as 0.1 µM.

On to `Cc1cc(OCc2c(F)cccc2F)c2nc(C)c(C(=O)NC(C#N)C(N)=O)n2c1` (racemic) [Example 34, rac-N-(2-amino-1-cyan-2-oxoethyl)-8-[(2,6-difluorobenzyl)oxy]-2,6-dimethylimidazo[1,2-a]pyridine-3-carboxamide], for which the MEC amounted to 1 µM.

In the case of `Cc1cc(OCc2c(F)cccc2F)c2nc(C)c(C(=O)NC(C)C#N)n2c1` (single isomer, unassigned) [Example 15, ent-N-(1-Cyanoethyl)-8-[(2,6-difluorobenzyl)oxy]-2,6-dimethylimidazo[1,2-a]pyridine-3-carboxamide], the MEC amounted to 0.3 µM.

Regarding `Cc1cc(OCc2c(F)cccc2F)c2nc(C)c(C(=O)NCC(N)CC#N)n2c1` (single isomer, unassigned) [Example 42, ent-N-(2-Amino-3-cyanopropyl)-8-[(2,6-difluorobenzyl)oxy]-2,6-dimethylimidazo[1,2-a]pyridine-3-carboxamide], the MEC turned out to be 1 µM.

For the molecule `CCOc1ccc(NC(=O)c2c(C)nc3c(OCc4c(F)cccc4F)cc(C)cn23)cc1C#N` [Example 32, N-(3-Cyano-4-ethoxyphenyl)-8-[(2,6-difluorobenzyl)oxy]-2,6-dimethylimidazo[1,2-a]pyridine-3-carboxamide], the MEC worked out at 1 µM.

In the case of `Cc1cc(OC(C)c2c(F)cccc2F)c2nc(C)c(C(=O)NC(C#N)c3ccc(Cl)cc3)n2c1` (centres unmarked) [Example 26, N-[(4-chlorophenyl)(cyano)methyl]-8-[1-(2,6-difluorophenyl)ethoxy]-2,6-dimethylimidazo[1,2-a]pyridine-3-carboxamide], the MEC is 10 µM.

For the molecule `Cc1cc(OCc2c(F)cccc2F)c2nc(C)c(C(=O)NC3CCCCC3C#N)n2c1` (centres unmarked) [Example 11, N-(2-cyanocyclohexyl)-8-[(2,6-difluorobenzyl)oxy]-2,6-dimethylimidazo[1,2-a]pyridine-3-carboxamide], the MEC was 0.3 µM.

In the case of `Cc1nc2c(OCC3CCCCC3)cccn2c1C(=O)NC(C#N)c1ccc(Cl)cc1` (racemic) [Example 20, rac-N-[(4-chlorophenyl)(cyano)methyl]-8-(cyclohexylmethoxy)-2-methylimidazo[1,2-a]pyridine-3-carboxamide], the MEC is 1 µM.

For the molecule `Cc1cc(OCc2c(F)cccc2F)c2nc(C)c(C(=O)NCC(N)CCCC#N)n2c1` (single isomer, unassigned) [Example 47, ent-N-(2-Amino-5-cyanopentyl)-8-[(2,6-difluorobenzyl)oxy]-2,6-dimethylimidazo[1,2-a]pyridine-3-carboxamide], the MEC came out at 1 µM.

On to `Cc1cc(OCc2c(F)cccc2F)c2nc(C)c(C(=O)NC(CN)CC#N)n2c1` (racemic) [Example 39, rac-N-(1-Amino-3-cyanopropan-2-yl)-8-[(2,6-difluorobenzyl)oxy]-2,6-dimethylimidazo[1,2-a]pyridine-3-carboxamide], for which the MEC stood at 1 µM.

Turning to `Cc1cc(OCc2c(F)cccc2F)c2nc(C)c(C(=O)NC3(C#N)CCC3)n2c1` [Example 5, N-(1-cyanocyclobutyl)-8-[(2,6-difluorobenzyl)oxy]-2,6-dimethylimidazo[1,2-a]pyridine-3-carboxamide], the MEC is 0.03 µM.

Consider `Cc1cc(OCc2c(F)cccc2F)c2nc(C)c(C(=O)NC(C)C#N)n2c1` (single isomer, unassigned) [Example 16, ent-N-(1-Cyanoethyl)-8-[(2,6-difluorobenzyl)oxy]-2,6-dimethylimidazo[1,2-a]pyridine-3-carboxamide], for which the MEC was determined as 0.3 µM.

Take `Cc1cc(OCc2c(F)cncc2F)c2nc(C)c(C(=O)NC(C#N)c3ccc(Cl)cc3)n2c1` (racemic) [Example 30, rac-N-[(4-chlorophenyl)(cyano)methyl]-8-[(3,5-difluoropyridin-4-yl)methoxy]-2,6-dimethylimidazo[1,2-a]pyridine-3-carboxamide]: the MEC came to 1 µM.

Regarding `Cc1cc(OCc2c(F)cccc2F)c2nc(C)c(C(=O)NCC(N)CCC#N)n2c1` (racemic) [Example 44, rac-N-(2-Amino-4-cyanobutyl)-8-[(2,6-difluorobenzyl)oxy]-2,6-dimethylimidazo[1,2-a]pyridine-3-carboxamide], the MEC came out at 1 µM.

`Cc1cc(OCc2c(F)cccc2F)c2nc(C)c(C(=O)Nc3ccc(CC#N)cc3)n2c1` [Example 36, N-[4-(cyanomethyl)phenyl]-8-[(2,6-difluorobenzyl)oxy]-2,6-dimethylimidazo[1,2-a]pyridine-3-carboxamide]: the MEC was 1 µM.

As to `Cc1cc(OCc2c(F)cccc2F)c2nc(C)c(C(=O)NCC3CCC(C#N)CC3)n2c1` (centres unmarked) [Example 12, N-[(4-cyanocyclohexyl)methyl]-8-[(2,6-difluorobenzyl)oxy]-2,6-dimethylimidazo[1,2-a]pyridine-3-carboxamide], the MEC came out at 0.1 µM.

As for `COc1ccc(F)c(COc2cc(C)cn3c(C(=O)NC(C#N)c4ccc(Cl)cc4)c(C)nc23)c1F` (racemic) [Example 22, rac-N-[(4-chlorophenyl)(cyano)methyl]-8-[(2,6-difluoro-3-methoxybenzyl)oxy]-2,6-dimethylimidazo[1,2-a]pyridine-3-carboxamide], the MEC was determined as 3 µM.

On to `Cc1cc(OCc2c(F)ccc(C3CC3)c2F)c2nc(C)c(C(=O)NCC3CCC(C#N)CC3)n2c1` (centres unmarked) [Example 40, N-[(4-Cyanocyclohexyl)methyl]-8-[(3-cyclopropyl-2,6-difluorobenzyl)oxy]-2,6-dimethylimidazo[1,2-a]pyridine-3-carboxamide], for which the MEC worked out at 3 µM.

Consider `Cc1cc(OCc2c(F)cccc2F)c2nc(C)c(C(=O)NCC(N)CCCC#N)n2c1` (racemic) [Example 45, rac-N-(2-Amino-5-cyanopentyl)-8-[(2,6-difluorobenzyl)oxy]-2,6-dimethylimidazo[1,2-a]pyridine-3-carboxamide], for which the MEC stood at 2 µM.

Regarding `Cc1cc(OCc2c(F)cccc2F)c2nc(C)c(C(=O)NCC#N)n2c1` [Example 2, N-(cyanomethyl)-8-[(2,6-difluorobenzyl)oxy]-2,6-dimethylimidazo[1,2-a]pyridine-3-carboxamide], the MEC was 0.3 µM.

The values are drawn from patent publication US9771360B2, “Cyano-substituted imidazo[1,2-A]pyridinecarboxamides and their use” (Bayer Pharma Aktiengesellschaft, priority 2014, dated 2017).
